Assay results taken from patent publication EP0906127B1, “NOVEL DEVICES FOR TRANSDERMAL ADMINISTERING OF TRIMEGESTONE” (priority 1996, dated 1997).

Assays:
[1] = target: T1, récepteurs hormonaux humains recombinant androgène (hAN) (Homo sapiens, UniProt P10275); assay: Relative binding affinity for recombinant hormone receptors (SF9 insect cell-baculovirus overexpression)
T1 construct: made in house; host or cells: SF9 insect cells / baculovirus
Description: (§1) Cette affinité a été étudiée sur les récepteurs hormonaux humains recombinant de la progestérone (hPR), androgène (hAN), glucocorticoide (hGR) et estrogène (hER).

[2] = In vivo studies of the hormonal activity profile
[3] = target: T2, récepteurs hormonaux humains recombinant de la progestérone (hPR) (Homo sapiens, UniProt P06401); assay: Relative binding affinity for recombinant hormone receptors (SF9 insect cell-baculovirus overexpression)
T2 construct: made in house; host or cells: SF9 insect cells / baculovirus
T2 sequence (P06401 1-933): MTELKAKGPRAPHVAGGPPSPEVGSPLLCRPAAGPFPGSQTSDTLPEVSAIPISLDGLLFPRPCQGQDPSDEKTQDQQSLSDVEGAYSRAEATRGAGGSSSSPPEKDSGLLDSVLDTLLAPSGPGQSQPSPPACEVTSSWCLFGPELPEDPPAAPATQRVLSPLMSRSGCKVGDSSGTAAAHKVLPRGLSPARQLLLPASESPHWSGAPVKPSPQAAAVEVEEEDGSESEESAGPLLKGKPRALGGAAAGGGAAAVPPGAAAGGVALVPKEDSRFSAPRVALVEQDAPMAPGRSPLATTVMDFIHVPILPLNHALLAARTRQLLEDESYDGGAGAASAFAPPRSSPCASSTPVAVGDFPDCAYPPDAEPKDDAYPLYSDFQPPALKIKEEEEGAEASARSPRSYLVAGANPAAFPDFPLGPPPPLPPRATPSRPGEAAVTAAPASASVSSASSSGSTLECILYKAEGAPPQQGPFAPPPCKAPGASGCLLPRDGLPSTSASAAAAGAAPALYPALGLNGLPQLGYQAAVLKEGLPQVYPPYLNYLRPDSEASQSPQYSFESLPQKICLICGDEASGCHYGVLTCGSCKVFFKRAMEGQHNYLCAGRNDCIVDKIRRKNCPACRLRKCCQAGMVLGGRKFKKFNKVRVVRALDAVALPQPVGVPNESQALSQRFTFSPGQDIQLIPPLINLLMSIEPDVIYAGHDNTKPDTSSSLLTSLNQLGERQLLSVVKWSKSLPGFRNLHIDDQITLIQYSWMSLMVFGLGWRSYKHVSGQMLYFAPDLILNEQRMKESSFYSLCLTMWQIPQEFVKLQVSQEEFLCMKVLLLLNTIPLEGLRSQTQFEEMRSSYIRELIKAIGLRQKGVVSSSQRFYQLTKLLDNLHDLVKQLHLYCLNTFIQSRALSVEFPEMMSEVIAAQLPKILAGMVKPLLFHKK
Description: as §1

[4] = target: T3, récepteurs hormonaux humains recombinant estrogène (hER) (Homo sapiens, UniProt P03372); assay: as above
T3 construct: made in house; host or cells: SF9 insect cells / baculovirus
T3 sequence (P03372 1-595): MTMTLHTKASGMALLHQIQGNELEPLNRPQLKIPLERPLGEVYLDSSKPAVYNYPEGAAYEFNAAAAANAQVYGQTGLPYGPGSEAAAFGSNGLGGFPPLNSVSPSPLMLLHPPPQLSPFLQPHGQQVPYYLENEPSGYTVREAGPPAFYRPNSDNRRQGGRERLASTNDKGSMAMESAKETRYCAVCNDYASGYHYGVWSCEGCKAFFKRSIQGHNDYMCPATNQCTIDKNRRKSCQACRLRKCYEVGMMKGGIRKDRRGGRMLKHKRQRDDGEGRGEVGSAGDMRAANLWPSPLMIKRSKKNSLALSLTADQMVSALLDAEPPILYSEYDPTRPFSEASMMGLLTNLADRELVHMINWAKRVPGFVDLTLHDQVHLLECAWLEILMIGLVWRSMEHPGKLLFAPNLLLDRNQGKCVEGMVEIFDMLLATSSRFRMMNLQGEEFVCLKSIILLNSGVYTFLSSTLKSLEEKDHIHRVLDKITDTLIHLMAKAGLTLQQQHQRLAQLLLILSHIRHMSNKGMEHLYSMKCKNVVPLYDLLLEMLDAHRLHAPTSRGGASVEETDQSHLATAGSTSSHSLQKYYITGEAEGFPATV
Description: as §1

[5] = target: T4, récepteurs hormonaux humains recombinant glucocorticoide (hGR) (Homo sapiens, UniProt P04150); assay: as above
T4 construct: made in house; host or cells: SF9 insect cells / baculovirus
T4 sequence (P04150 1-777): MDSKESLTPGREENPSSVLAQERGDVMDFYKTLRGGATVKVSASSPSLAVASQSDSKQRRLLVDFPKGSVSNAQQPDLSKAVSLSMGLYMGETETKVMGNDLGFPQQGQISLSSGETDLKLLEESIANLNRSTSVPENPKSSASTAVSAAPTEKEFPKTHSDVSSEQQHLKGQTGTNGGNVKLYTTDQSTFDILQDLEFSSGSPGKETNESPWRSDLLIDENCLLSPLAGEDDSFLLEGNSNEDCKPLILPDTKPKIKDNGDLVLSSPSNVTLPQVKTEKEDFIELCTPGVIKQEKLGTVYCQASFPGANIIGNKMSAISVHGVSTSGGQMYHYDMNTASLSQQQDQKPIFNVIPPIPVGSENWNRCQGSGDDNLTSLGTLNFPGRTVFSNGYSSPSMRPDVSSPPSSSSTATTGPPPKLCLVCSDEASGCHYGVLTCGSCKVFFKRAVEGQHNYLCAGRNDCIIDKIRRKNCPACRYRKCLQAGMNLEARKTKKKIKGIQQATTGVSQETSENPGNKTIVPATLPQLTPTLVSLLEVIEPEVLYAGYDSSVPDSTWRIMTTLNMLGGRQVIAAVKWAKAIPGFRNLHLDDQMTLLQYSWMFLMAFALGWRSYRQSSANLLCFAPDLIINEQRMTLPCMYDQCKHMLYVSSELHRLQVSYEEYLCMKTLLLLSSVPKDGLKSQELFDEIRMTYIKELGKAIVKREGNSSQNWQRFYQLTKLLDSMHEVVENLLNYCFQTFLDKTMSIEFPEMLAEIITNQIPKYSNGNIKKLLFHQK
Description: Cette affinité a été étudiée sur les récepteurs hormonaux humains recombinant de la progestérone (hPR), androgène (hAN), glucocorticoide (hGR) et estrogène (hER). Ces récepteurs sont obtenus par surexpression dans un système cellules d'insectes-bacullovirus SF9 selon les méthodes décrites notamment dans la demande de brevet Européenne 0 629 635. Les affinité relatives de liaison (ARL) sont les suivantes : […]

T1 sequence (P10275 whole entry): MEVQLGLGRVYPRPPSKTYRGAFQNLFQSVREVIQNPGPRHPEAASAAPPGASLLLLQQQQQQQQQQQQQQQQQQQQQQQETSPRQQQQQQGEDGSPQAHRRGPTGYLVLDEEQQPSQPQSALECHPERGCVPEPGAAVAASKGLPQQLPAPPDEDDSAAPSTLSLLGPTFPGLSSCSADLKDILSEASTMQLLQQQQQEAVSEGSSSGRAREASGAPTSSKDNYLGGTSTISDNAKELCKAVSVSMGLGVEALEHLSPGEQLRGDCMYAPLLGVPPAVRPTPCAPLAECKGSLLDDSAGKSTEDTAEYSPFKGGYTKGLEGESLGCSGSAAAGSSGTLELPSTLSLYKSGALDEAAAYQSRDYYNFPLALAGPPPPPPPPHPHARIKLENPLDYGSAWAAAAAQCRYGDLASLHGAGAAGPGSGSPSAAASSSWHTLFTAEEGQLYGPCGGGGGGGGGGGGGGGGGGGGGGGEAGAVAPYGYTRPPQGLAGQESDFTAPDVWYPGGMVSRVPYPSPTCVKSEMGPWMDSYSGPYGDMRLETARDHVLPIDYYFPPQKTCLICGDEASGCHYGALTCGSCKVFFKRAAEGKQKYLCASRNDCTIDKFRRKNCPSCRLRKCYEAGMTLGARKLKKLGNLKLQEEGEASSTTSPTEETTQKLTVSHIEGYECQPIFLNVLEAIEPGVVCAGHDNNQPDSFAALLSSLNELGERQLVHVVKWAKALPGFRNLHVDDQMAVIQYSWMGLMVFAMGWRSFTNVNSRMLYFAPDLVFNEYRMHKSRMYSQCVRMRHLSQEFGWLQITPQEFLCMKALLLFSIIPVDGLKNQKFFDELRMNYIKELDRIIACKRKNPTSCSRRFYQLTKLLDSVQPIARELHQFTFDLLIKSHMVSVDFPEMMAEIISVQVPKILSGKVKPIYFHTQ

Compound	affinité vis-à-vis du récepteur androgène ([1]; in words)	activité androgène [2]	activité antiandrogène [2]	activité antiglucocorticoïde [2]	activité antiminéralocorticoïde [2]	activité estrogène [2]	activité glucocorticoïde [2]	activité minéralocorticoïde [2]	activité progestomimétique [2]	ARL hAN ([1]; relative binding affinity)	ARL hPR [3]	ARL hER [4]	ARL hGR [5]
C[C@H](O)C(=O)[C@@]1(C)CC[C@H]2[C@@H]3CCC4=CC(=O)CCC4=C3CC[C@@]21C [Trimegestone, 17alpha-méthyl-17béta-(2-hydroxy-1-oxo-propyl)-estra-4,9-dièn-3-one (21S)]	très faible affinité	dénué	présente	dénué	présente	dénué	dénué	dénué	puissant progestomimétique	–	–	–	–
medroxypropgestérone [MPA]	–	–	–	–	–	–	–	–	–	36	298	< 0,02	58
